Data: patent EP2333100B1, “NAD(P)+-cofactor regeneration system und its use” (priority 2009, dated 2011)

What was measured:
Type in all cases: biochemical
[1] = molecular target: 12α-HSDH aus Clostridium sp. group P strain 48-50, Wildtypenzym (Clostridium sp., UniProt P21215); experiment: Product inhibition of 12α-HSDH by 12-ketochenodeoxycholic acid; conditions: loss of activity at 5 % Umsatz; 100 % = activity at 0 % Umsatz (5mM CS); product concentration not given
From the text: "Poduktinhibition" der 12α-HSDH beschreibt die Verringerung der enzymatischen Aktivität in Gegenwart eines bei einer durch das Enzym katalysierten enzymatischen Umsetzung gebildeten Produkts. Bei Umsetzung zu CS ist so z.B. eine Inhibition durch 12-Keto-CDCS zu beobachten. Eine "Verringerung der Produktinhibition" beschreibt die verringerte prozentuale Abnahme der Enzymaktivität einer erfindungsgemäß eingesetzten Enzymmutante im Vergleich zu einem Referenzsystem, wie z.B. dem nativen HSDH-Enzym, jeweils bezogen auf die bei 0 % Umsatz (entsprechend 5mM CS) ermittelte Enzymaktivität als 100 %-Aktivitätswert. Diese Verringerung kann, wie im experimentellen Teil, bzw. in der Legende zu Figur 9 beschrieben, bestimmt werden. Verringerungen der Produktinhibition können auch über das Verhältnis der Restaktivitäten von Mutante zu Referenzenzym jeweils bestimmt bei gleichem prozentualen Umsatz, ausgedrückt werden. So kann die ererfindungsgemäß eingesetzte Mutante eine um den Faktor 1,1 bis 100, wie z.B. 1,5 bis 20 oder 2 bis 10 erhöhte Aktivität besitzen.
Die Aktivität wird wie folgt definiert: 1 U des Enzyms entspricht der Enzymmenge, welche die Umsetzung von 1 µmol/min einer 5 mM Cholsäurelösung in KaliumphosphatPuffer (50 mM, pH 8,0) bei Raumtemperatur (d.h. ca. 20 °C-23 °C) katalysiert. […]

[2] = tested on: NADPH Dehydrogenase aus Bacillus stearothermophilus Sulfit Reduktase (EC 1.8.1.2), SEQ ID NO: 28; experiment: NADPH oxidation with riboflavin as electron acceptor, tolerance to cholic acid; conditions: activity with 0,1 M Cholsäure, 100% = ohne Cholsäure; 10 µM Riboflavin, 100 µM NADPH, 50 mM Tris-HCl (pH 8)
Experimental: (§1) Die NADPH-Oxidation unter Verwendung von Riboflavin als Elektronenakzeptor wurde in 1 ml Reaktionsmedium, enthaltend 2-50 µl Enzymlösung, 50 mM Tris-HCl (pH 8), 10 µM Riboflavin, 100 µM NADPH mit und ohne 0,1 M Cholsäure bestimmt. Die Oxidation von NADPH wurde über die Abnahme der Extinktion bei 340 nm spektrophotometrisch aufgezeichnet. Die Aktivitätseinheit (uM NADPH oxidiert/min) wurde mit Hilfes des millimolaren Extinktionscoeffizienten für NADPH von 6,22 mM^-1 cm^-1 bei 340 nm bestimmt.
(§2) Folgende Enzyme wurden getestet: NADPH Dehydrogenase aus Bacillus stearothermophilus Sulfit Reduktase, Flavin-Subunit von Sulfit-Reduktase aus E. coli und NAD(P)H-Flavin Reduktase aus E. coli. Die Ergebnisse sind in folgender Tabelle 3 zusammengefasst: TABELLE 3

[3] = molecular target: T1, NADPH Dehydrogenase aus Sulfit-Reduktase (E. coli); Flavin-Subunit von Sulfit-Reduktase aus E. coli (Escherichia coli, UniProt P38038); experiment: as above; conditions: activity with 0,1 M Cholsäure, 100% = ohne Cholsäure; 10 µM Riboflavin, 100 µM NADPH, 50 mM Tris-HCl (pH 8)
T1 construct: made in house; host or cells: E. coli (cell lysate)
Experimental: as §1, §2

[4] = molecular target: T2, NAD(P)H-Flavin Reduktase aus E. coli (EC 1.5.1.29 / 1.16.1.3), SEQ ID NO: 30 (Escherichia coli, UniProt P0AEN1); experiment: as above; conditions: activity with 0,1 M Cholsäure, 100% = ohne Cholsäure; 10 µM Riboflavin, 100 µM NADPH, 50 mM Tris-HCl (pH 8); read-out: Mit 0, 1 M Cholsäure, U/ml E. coli Zell-Lysate (%)
T2 construct: made in house; host or cells: E. coli (cell lysate)
Experimental: as §1, §2

[5] = molecular target: T3, Glutathion Reduktase aus Saccharomyces cerevisiae (Saccharomyces cerevisiae, UniProt P41921); experiment: NADPH oxidation with DCIP as electron acceptor, tolerance to cholic acid; conditions: remaining activity with 0,1 M Cholsäure, 100% = ohne Cholsäure; 75 µM DCIP, 100 µM NADPH, 50 mM Tris-HCl (pH 8); read-out: Mit 0, 1 M Cholsäure, U/mg Protein (%)
T3 construct: purchased Sigma
T3 sequence (P41921 1-467 isoform P41921-2): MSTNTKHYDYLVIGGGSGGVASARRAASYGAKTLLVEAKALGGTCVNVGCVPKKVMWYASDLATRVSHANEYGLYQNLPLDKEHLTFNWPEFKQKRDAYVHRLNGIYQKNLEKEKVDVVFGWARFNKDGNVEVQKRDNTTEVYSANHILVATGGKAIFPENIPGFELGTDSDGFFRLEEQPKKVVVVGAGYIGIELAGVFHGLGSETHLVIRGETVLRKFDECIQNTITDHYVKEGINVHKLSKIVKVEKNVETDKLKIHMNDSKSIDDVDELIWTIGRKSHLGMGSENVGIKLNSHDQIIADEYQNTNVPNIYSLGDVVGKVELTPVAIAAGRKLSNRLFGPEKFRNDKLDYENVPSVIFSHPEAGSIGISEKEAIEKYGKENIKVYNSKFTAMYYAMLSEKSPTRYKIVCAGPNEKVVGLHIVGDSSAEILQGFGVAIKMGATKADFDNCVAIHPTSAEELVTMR
Experimental: (§3) Die NADPH-Dehydrogenase Aktivität wurde unter Verwendung von Dichlorphenolindophenol (DCIP) als Substrat bestimmt. Die Reaktion wurde durch Zugabe von Enzym (2-50 µl) zu 1 ml Reaktionsgemisch, enthaltend 50 mM Tris-HCl (pH 8), 75 µM DCIP, 100 µM NADPH mit bzw. ohne 0,1 M Cholsäure gestartet. Die Reduktion von DCIP wurde durch Abnahme der Extinktion bei 600 nm spektrophotometrisch bestimmt. Die Aktivitätseinheit (µM DCIP reduziert/min) wurde mit Hilfe des Extinktions-Coeffizienten von DCIP von 20 mM^-1 cm^-1 bei 600 nm bestimmt.
(§4) Folgende Enzyme wurden getestet: Flavodoxin Reduktase aus E. coli, Reduktase Domäne der CYP102A1 aus Bacillus megaterium; Glutathion Reduktase aus Saccharomyces cerevisiae und Diaphorase aus Clostridium kluyveri. Die Ergebnisse sind in der folgenden Tabelle 2 zusammengestellt.

[6] = molecular target: T4, Flavodoxin Reduktase aus E. coli (EC 1.18.1.2), SEQ ID NO: 26 (Escherichia coli, UniProt P28861); experiment: as above; conditions: remaining activity with 0,1 M Cholsäure, 100% = ohne Cholsäure; 75 µM DCIP, 100 µM NADPH, 50 mM Tris-HCl (pH 8); read-out: Mit 0, 1 M Cholsäure, U/mg Protein (%)
T4 construct: made in house; host or cells: E. coli
Experimental: as §3, §4

[7] = tested on: Diaphorase aus Clostridium kluyveri; experiment: as above; conditions: remaining activity with 0,1 M Cholsäure, 100% = ohne Cholsäure; 75 µM DCIP, 100 µM NADPH, 50 mM Tris-HCl (pH 8)
Experimental: as §3, §4

[8] = molecular target: Reduktase Domäne der CYP102A1 aus Bacillus megaterium (EC 1.6.2.4), SEQ ID NO: 24 (Priestia megaterium, UniProt P14779); experiment: as above; conditions: remaining activity with 0,1 M Cholsäure, 100% = ohne Cholsäure; 75 µM DCIP, 100 µM NADPH, 50 mM Tris-HCl (pH 8); read-out: Mit 0, 1 M Cholsäure, U/mg Protein (%)
Experimental: as §3, §4

T1 sequence (P38038 whole entry): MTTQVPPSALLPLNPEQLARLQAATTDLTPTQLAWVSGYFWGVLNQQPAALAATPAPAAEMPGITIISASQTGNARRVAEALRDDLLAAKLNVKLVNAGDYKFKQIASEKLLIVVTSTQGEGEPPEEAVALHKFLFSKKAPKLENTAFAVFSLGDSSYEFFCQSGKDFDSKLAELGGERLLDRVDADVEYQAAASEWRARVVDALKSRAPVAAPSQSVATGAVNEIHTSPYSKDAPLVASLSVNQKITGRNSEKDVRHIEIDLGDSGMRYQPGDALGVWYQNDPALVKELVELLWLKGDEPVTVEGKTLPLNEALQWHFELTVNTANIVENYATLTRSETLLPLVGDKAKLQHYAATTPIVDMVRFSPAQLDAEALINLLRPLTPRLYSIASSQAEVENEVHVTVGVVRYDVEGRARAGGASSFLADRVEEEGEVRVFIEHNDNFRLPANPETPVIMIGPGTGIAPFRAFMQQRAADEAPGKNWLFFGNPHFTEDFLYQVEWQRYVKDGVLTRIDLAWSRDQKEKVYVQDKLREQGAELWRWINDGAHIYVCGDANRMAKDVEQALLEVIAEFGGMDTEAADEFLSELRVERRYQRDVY
Reduktase Domäne der CYP102A1 aus Bacillus megaterium (EC 1.6.2.4), SEQ ID NO: 24, sequence (P14779 473-1049): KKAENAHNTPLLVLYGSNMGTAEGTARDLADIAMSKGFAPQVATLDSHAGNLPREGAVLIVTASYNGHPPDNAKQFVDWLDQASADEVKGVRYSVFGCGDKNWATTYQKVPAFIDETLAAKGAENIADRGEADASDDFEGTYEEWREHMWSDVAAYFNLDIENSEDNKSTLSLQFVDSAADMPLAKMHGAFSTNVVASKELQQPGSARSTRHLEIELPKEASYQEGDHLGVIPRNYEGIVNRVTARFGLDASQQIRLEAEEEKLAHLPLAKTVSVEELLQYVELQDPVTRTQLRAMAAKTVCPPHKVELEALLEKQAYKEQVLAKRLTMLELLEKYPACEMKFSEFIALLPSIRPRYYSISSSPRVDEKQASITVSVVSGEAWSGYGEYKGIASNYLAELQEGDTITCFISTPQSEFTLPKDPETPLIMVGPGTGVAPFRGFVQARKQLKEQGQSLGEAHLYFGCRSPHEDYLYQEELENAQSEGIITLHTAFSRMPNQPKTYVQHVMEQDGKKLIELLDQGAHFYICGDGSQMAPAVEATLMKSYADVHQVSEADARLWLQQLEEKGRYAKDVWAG
T4 sequence (P28861 whole entry): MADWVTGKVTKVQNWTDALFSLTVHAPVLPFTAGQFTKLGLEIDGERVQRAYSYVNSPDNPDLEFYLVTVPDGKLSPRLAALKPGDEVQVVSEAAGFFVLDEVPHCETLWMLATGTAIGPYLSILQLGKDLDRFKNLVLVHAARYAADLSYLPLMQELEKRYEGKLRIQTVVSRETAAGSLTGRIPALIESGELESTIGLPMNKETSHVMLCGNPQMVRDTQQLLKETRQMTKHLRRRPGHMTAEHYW
T2 sequence (P0AEN1 whole entry): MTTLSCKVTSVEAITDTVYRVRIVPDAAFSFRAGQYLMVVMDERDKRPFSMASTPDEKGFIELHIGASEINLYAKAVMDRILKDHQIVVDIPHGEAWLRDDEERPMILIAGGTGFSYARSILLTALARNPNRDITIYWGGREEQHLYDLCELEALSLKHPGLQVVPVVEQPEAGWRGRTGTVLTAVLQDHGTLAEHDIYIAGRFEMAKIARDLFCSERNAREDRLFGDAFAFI
12α-HSDH aus Clostridium sp. group P strain 48-50, Wildtypenzym, sequence (P21215 whole entry): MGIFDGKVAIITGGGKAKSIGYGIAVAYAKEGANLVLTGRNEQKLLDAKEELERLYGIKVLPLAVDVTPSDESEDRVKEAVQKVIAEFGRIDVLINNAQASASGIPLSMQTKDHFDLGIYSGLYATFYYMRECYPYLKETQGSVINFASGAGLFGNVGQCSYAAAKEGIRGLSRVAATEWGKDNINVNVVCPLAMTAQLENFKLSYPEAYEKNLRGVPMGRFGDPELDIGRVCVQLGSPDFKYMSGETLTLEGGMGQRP

SMILES | Verlust (Produktinhibierung durch 12-Ketochenodesoxycholsäure) [1] | Mit 0, 1 M Cholsäure, U/ml E. coli Zell-Lysate (%) [2] | Mit 0, 1 M Cholsäure, U/ml E. coli Zell-Lysate (%) [3] | activity at 100000 µM [4] | activity at 100000 µM [5] | activity at 100000 µM [6] | Mit 0, 1 M Cholsäure, U/mg Protein (%) [7] | activity at 100000 µM [8]
C[C@H](CCC(=O)O)[C@H]1CC[C@H]2[C@@H]3[C@H](O)C[C@@H]4C[C@H](O)CC[C@]4(C)[C@H]3CC(=O)[C@]12C [12-Ketochenodesoxycholsäure] | 60% | – | – | – | – | – | – | –
C[C@H](CCC(=O)O)[C@H]1CC[C@H]2[C@@H]3[C@H](O)C[C@@H]4C[C@H](O)CC[C@]4(C)[C@H]3C[C@H](O)[C@]12C [Cholsäure] | – | 22,1 (155 %) | 2,1 (6 %) | 5% | 15% | 93% | 0,26 (3 %) | 35%
